Measured values reported in patent US9439899B2, “Cancer therapy using a combination of HSP90 inhibitors with topoisomerase I inhibitors” (Synta Pharmaceuticals Corp., priority 2011, dated 2016).

Tested on: HCT-116 colorectal cancer cells
Assay: Cell viability (alamarBlue) assay, single agents and combinations, in HCT-116 colorectal cancer cells
Type: cell-based
Details: Homo sapiens; HCT-116 cells exposed to drug for 72 hr; 1.5-fold serial dilution; four parameter logistic fit; read-out: half maximal inhibitory concentration (IC50), cell viability
Protocol: Human HCT-116 colorectal cancer cells (CRC) were purchased from the American Type Culture Collection (Manassas, Va.) and grown in McCoy's 5a media (Sigma), following ATCC recommendations, in the presence of fetal bovine serum (10%), 2 mM L-glutamine and antibiotics (100 IU/ml penicillin and 100 μg/ml streptomycin, Sigma). Cells were maintained at 37° C., 5% CO2 atmosphere.
Cell viability was measured using the alamarBlue assay (Invitrogen). In brief, cells were plated in 96-well plates in triplicate at 5K cells per well and incubated at 37° C., 5% CO2 atmosphere for 24 hr prior to the addition of drug or vehicle (0.3% DMSO) to the culture medium. After 72 hr, 10 μl/well alamarBlue was added to the wells and incubated for an additional 3 hr at 37° C., 5% CO2 atmosphere. Fluorescence (560EX/590EM […]) was measured with a SpectraMax microplate reader (Molecular Devices) and the resulting data were used to calculate cell viability, normalized to vehicle control. […]
Combinations between ganetespib and irinotecan were then performed in HCT-116 cells concurrently based on the IC50 for each agent in matrix format with 54 combination pairs for each drug. The combined drugs, as well as each drug alone, were incubated with the cells for 3 days and the surviving fraction of cells relative to control was determined using the alamarBlue assay.

IC50 [nM] | Compound
~32 | CC(C)c1cc(-c2nnc(O)n2-c2ccc3c(ccn3C)c2)c(O)cc1O [ganetespib, 3-(2,4-DIHYDROXY-5- ISOPROPYL-PHENYL)-4-(1- METHYL-INDOL-5-YL)-5- HYDROXY-[1,2,4] TRIAZOLE]
~2300 | CCc1c2c(nc3ccc(OC(=O)N4CCC(N5CCCCC5)CC4)cc13)-c1cc3c(c(=O)n1C2)COC(=O)[C@]3(O)CC [irinotecan]
